From patent US10525186B2 (Fresenius Medical Care Holdings, Inc., priority 2009, dated 2020)

Assay: Hemodialysis treatments with trisodium citrate infusion into the arterial line and Citrasate dialysate; measured ionized calcium
Type: in vivo, maintenance HD patients
Conditions: 15 min into the treatment, mean±SD
Protocol: For one treatment only, Citrasate with 2.5 mEq/L Ca was used. No post-dialyzer Ca infusion was performed. Total Ca, Ca^++ and total Ci were measured systemically, pre- and post-dialyzer at the following time points: before HD (systemically only), at several time points throughout the treatment, and at the end of HD. […] Total protein and albumin were measured before dialysis. The most recent alkaline phosphatase (AP) and total parathyroid hormone (PTH) (Scantibodies assay, Scantibodies Laboratory, Inc., Santee, Calif.) were recorded. […] All subjects used Optiflux F180NR dialyzers (Fresenius Medical Care North America, Waltham, Mass.).
Measured and predicted systemic Ca^++ were compared pre-HD and at 15 min into the treatment. For the latter, pre-HD predicted were adjusted to measured values. Pre- and post-dialyzer comparisons between measured and estimated Ca^++ were performed at 15 min into the treatment. Deviations between predicted and measured systemic Ca^++ over the entire treatment were compared for tertiles of AP and tPTH.
Results are presented below as mean±standard deviation (SD) unless otherwise noted. Differences between predicted and measured values were calculated as predicted minus measured and were tested for significant deviation from zero by means of two-tailed one-sample t test. Bland-Altman plots were generated and the underlying data analyzed for systematic bias by means of linear regression. Statistical significance was accepted for an alpha level of <0.05.

[1] = Citrasate dialysate, no post-dialyzer Ca infusion

Question: What does the source list for `O=C([O-])CC(O)(CC(=O)[O-])C(=O)[O-].[Na+].[Na+].[Na+]` [Trisodium citrate]?
Answer: Measured post-dialyzer Ca [1]: 0.7 ± 0.05 mmol/L; Measured systemic Ca++ [1]: 1.01 ± 0.05 mmol/L; Measured pre-dialyzer Ca (after citrate infusion): 0.33 ± 0.06 mmol/L
